# Assay results as given in patent publication US6017878A (McGill University, priority 1994, dated 2000).
# “And” between values parts separate entries of the source, which are not always exact repeats. Identical values can stand only once. “Also recorded” adds a separate entry of the source.
# Columns and labels:
# [1] = test system: NGF induced neurite outgrowth in PC12 cells; test: NGF induced neurite outgrowth assay in PC12 cells; type: cell-based, rat; conditions: analog ~10 μM, 50 ng/ml NGF; for INHIBITION OF NEURITE OUTGROWTH (1): PC12 cells, arbitrary units by comparison with NGF dose response curves
# Method: (§1) All cells were cultured as described. PC12 pheochromocytoma cells expressing rat p140 trkA and p75 LNGFR (American Type Culture Collection, 7th edition, 1992, Catalog of cell lines and hybridomas, R. Hay Editor, accession No. CRL 1721) were grown in DMEM supplemented with 20% Fetal Bovine Serum (FBS), 10% Horse serum, and antibiotics. PC12 cells used for experiments were grown on collagen coated dishes. The NIH-3T3 fibroblast transfectants R7 (p75 and trkA double transfectant) and E25 (trkA transfectant) (Jing, S. et al. (1992) Neuron, 9: 1067-1079; kindly provided by Dr. Mariano Barbacid, Bristol-Meyers-Squibb, NJ) were grown in RPMI media supplemented with 5% FBS and antibiotics and the appropriate drug selection.
# (§2) Cells without growth factor added served as baseline, whereas cells with growth factor but without analog added were used for maximum neurite outgrowth determination. All analogs were tested in at least three separate assays from three different synthesis. Samples were coded and analysis were performed blind.
# (§3) Representative results for 3 different analogs are shown. For a summary and complete list of the results from these biological tests see Table II.
# Significant inhibition is indicated by +++.
# [2] = test system: bFGF mediated neurite outgrowth in PC12 cells; test: bFGF mediated neurite outgrowth in PC12 cells (specificity control); type: cell-based, rat; conditions: analog ~10 μM, 50 ng/ml bFGF
# Method: as §2, §3
# [3] = molecular target: T1, E25 (trkA), trkA receptor expressing fibroblast transfectants (Homo sapiens, UniProt P04629); test: 125I-NGF binding to E25 transfectants, with dose response and saturation studies; conditions: for effect on 125I-NGF binding to E25 cells (in words) / % INHIBITION of 125I-NGF binding, E25 (trkA): analog ~40 μM; for % INHIBITION of 125I-NGF binding, E25 (trkA): mean ±2 SEM
# T1 construct: expressed in transfected cells; host or cells: NIH-3T3 mouse fibroblasts (E25), from Dr. Mariano Barbacid; Jing et al. 1992
# Method: as §1
# (§4) Assays were performed >4 times, each from at least three different synthesis (inhibitory analogs) or 1-3 times each from 2 different synthesis (non-inhibitory analogs).
# (§5) Analogs were used at a concentration of ^~ 40 μM.
# (§6) Data shown represents an average percent inhibition of binding ±2 standard errors of the mean (2 SEM). […] NT=not tested. (*) assayed only once.
# (§7) Percent inhibition was determined by applying the following formula: [formula]
# Saturation binding assays were performed with trkA receptor expressing E25 cells as described above.
# [4] = test system: NGF biological activity; conditions: Longo et al. 1990; cited from earlier work
# [5] = test system: PC12 cells; test: Toxicity control: cell death of PC12 cells after culture with the compounds; type: cell-based, rat
# [6] = molecular target: T2, PC12 (trkA-p75) (Rattus norvegicus, UniProt P35739); test: 125I-NGF binding to PC12 cells; conditions: mean ±2 SEM
# T2 construct: PC12 pheochromocytoma cells expressing rat p140 trkA and p75 LNGFR; host or cells: PC12 rat pheochromocytoma cells
# Method: as §1
# Analogs were tested for their ability to affect binding of ^125 I-NGF (73.1 μCi/μg NEN, DuPont). […] After 15 min, ^125 I-NGF was added to a final concentration of 0.4-2 nM (^~ 40,000 cpm) and the mixtures were further incubated for 40 min at 4° C. Cells were then washed in binding buffer, pelleted, and cell-associated ^125 I-NGF was determined. […] Assays were performed >4 times, each from at least three different synthesis (inhibitory analogs) or 1-3 times each from 2 different synthesis (non-inhibitory analogs). Receptor saturation experiments were similarly performed with increasing concentrations of ^125 I-NGF ligand and a constant dose of inhibitor.
# To determine the mechanism of biological antagonistic activity by the cyclic analogs, ^125 I-NGF binding measurements were performed with cell lines expressing both p75 and trkA receptors (PC12 cells and R7 transfectants) or only trkA receptors (E25 transfectants) (Table III). Analogs were used at a concentration of ^~ 40 μM.
# as §6, §7
# [7] = molecular target: T3, R7 (trkA-p75), NIH-3T3 p75 and trkA double transfectant (Homo sapiens, UniProt P04629); test: 125I-NGF binding to R7 transfectants; conditions: analog ~40 μM; for % INHIBITION of 125I-NGF binding, R7 (trkA-p75): mean ±2 SEM
# T3 construct: expressed in transfected cells; host or cells: NIH-3T3 mouse fibroblasts (R7), from Dr. Mariano Barbacid; Jing et al. 1992
# Method: as §1, §4, §5, §6, §7
# [8] = molecular target: T4, surface trkA receptors on E25 cells (Homo sapiens, UniProt P04629); test: trkA receptor internalization in E25 cells (FACScan); type: cell-based; conditions: 10 μM, 30 min, 37° C. permissive vs 4° C. 0.05% sodium azide
# T4 construct: expressed in transfected cells; host or cells: NIH-3T3 mouse fibroblasts (E25), from Dr. Mariano Barbacid; Jing et al. 1992
# Description: Expression of surface trkA receptors was quantified by FACScan analysis.
# FIG. 4A illustrates FACScan profiles using an anti-trkA specific monoclonal antibody versus control mouse IgG.
# FIG. 4B is a graph of the analysis of the % reduction of cell surface mean fluorescence channel (MFC, using the Lysis (B.D.) software) after receptor internalization.
# [9] = molecular target: T1, E25 (trkA), trkA receptor expressing fibroblast transfectants; test: 125I-NGF binding to E25 transfectants, with dose response and saturation studies; conditions: dose response 0.4 μM to 200 μM analog, constant 200 pM 125I-NGF; read-out: IC50, inhibition of 125I-NGF binding
# T1 sequence (P04629 33-790 isoform P04629-2 limits assumed): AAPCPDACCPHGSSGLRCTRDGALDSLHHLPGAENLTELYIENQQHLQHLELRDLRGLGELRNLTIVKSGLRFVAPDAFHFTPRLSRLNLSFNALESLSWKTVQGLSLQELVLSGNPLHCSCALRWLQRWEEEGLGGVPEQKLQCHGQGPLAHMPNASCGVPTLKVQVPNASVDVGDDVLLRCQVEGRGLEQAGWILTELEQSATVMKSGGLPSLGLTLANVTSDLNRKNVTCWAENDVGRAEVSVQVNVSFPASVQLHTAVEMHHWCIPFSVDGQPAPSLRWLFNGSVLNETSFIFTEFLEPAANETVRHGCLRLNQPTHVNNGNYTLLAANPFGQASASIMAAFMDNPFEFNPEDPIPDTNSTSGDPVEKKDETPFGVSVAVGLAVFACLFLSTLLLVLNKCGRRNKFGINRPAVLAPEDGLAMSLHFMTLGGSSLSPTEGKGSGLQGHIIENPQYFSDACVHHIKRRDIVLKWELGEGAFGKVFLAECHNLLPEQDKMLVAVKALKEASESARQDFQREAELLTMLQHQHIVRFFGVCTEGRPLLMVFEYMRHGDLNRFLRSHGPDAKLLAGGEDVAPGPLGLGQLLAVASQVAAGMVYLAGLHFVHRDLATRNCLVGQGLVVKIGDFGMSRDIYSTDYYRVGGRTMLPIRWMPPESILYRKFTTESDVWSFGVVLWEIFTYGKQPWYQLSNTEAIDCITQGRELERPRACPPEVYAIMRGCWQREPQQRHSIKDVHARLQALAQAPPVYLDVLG
# T2 sequence (P35739 33-799): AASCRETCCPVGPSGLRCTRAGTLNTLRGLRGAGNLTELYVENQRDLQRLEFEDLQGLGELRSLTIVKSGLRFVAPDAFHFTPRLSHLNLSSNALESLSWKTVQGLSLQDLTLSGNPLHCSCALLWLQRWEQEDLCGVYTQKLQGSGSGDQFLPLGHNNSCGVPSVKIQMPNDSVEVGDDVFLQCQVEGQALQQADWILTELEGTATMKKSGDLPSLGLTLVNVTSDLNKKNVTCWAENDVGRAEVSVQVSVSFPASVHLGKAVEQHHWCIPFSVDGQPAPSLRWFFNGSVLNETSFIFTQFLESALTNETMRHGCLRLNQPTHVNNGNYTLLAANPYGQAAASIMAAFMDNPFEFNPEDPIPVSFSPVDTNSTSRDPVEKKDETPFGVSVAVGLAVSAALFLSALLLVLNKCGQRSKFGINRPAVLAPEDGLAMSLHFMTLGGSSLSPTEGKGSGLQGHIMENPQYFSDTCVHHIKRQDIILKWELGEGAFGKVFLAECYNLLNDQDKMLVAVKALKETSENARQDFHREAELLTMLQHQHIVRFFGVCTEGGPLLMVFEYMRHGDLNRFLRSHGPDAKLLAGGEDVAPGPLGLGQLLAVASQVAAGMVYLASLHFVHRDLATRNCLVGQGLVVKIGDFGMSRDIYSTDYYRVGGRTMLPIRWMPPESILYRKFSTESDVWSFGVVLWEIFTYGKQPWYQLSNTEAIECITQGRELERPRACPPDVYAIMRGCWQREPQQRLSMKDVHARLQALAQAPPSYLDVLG
# T3 sequence (P04629 33-796): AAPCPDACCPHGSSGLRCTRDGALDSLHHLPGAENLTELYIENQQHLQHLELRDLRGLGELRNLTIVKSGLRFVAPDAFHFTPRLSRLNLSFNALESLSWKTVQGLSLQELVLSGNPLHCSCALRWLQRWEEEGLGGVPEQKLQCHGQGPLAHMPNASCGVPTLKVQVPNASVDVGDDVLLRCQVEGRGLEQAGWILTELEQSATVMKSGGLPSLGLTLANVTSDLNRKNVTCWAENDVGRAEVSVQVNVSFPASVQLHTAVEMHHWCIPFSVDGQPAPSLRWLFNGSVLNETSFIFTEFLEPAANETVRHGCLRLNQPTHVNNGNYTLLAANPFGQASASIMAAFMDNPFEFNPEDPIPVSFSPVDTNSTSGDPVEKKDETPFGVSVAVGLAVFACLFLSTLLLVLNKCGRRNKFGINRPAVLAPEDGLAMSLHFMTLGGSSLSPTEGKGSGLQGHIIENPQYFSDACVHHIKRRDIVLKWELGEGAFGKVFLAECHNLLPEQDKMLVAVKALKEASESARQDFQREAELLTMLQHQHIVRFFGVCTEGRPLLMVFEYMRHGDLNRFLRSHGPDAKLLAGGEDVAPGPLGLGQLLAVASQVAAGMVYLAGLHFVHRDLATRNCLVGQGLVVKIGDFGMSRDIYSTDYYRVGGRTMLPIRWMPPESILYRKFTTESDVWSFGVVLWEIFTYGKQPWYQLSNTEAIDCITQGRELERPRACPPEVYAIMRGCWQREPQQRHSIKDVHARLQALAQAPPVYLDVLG
# T4 sequence (P04629 33-790 isoform P04629-2 limits assumed): as the sequence (P04629 33-790 isoform P04629-2 limits assumed) above
substance,measurement,setting,value
Fmoc-X C I N N S V C X [C(44-48)],effect on NGF mediated PC12 neurite outgrowth (in words),[1],significantly inhibited; also recorded: effective in inhibiting biological assays in PC12 cells
same,INHIBITION OF NEURITE OUTGROWTH (1),[1],+++ (equivalent to 6.25 ng/ml NGF)
same,effect on bFGF mediated PC12 neurite outgrowth (in words),[2],did not affect
same,effect on 125I-NGF binding to E25 cells (in words),[3],did not inhibit; also recorded: without being effective at all in binding assays in E25 cells
same,"% INHIBITION of 125I-NGF binding, E25 (trkA)",[3],-12.5 ± 5.4%
"peptide with sequences from NGF residues 23-35: prior-art linear peptide of Longo et al. with sequences from NGF residues 23-35 (GDKTTATDIKGKE; UniProt P01138 144-156, looked up, fragment)",concentration of peptide at which inhibition of NGF biological activity occurred,[4],2 mM
Fmoc-X C S N P V E S C X [C(61-66)],cell death / necrosis after culture with the compounds,[5],did cause necrosis
"A N V S R S P E G (ANVSRSPEG) [R(59-67), randomized 59-67 control]",INHIBITION OF NEURITE OUTGROWTH (1),[1],+ (equivalent to 25 ng/ml NGF)
Nerve Growth Factor [NGF],"% INHIBITION of 125I-NGF binding, PC12 (trkA-p75)",[6]; 0.1 uM unlabeled NGF,69.5 ± 4.5%
X C A S N P V E C [C(60-65)],INHIBITION OF NEURITE OUTGROWTH (1),[1],++ (equivalent to 12.5 ng/ml NGF)
Fmoc-X C T A I K G K E C X [C(29-35ΔD30A)],cell death / necrosis after culture with the compounds,[5],did cause necrosis
"T T D E K Q A A W (TTDEKQAAW) [L(91-99), linear 91-99 control]",INHIBITION OF NEURITE OUTGROWTH (1),[1],+ (equivalent to 25 ng/ml NGF)
same,"% INHIBITION of 125I-NGF binding, R7 (trkA-p75)",[7],3.8 ± 1.0%
same,effect on 125I-NGF binding to E25 cells (in words),[3],"None of the other cyclic, linear or randomized analogs had significant effects"
same,"% INHIBITION of 125I-NGF binding, E25 (trkA)",[3],2.1 ± 8.5%
"A T D I K G K E V (ATDIKGKEV) [L(28-36), linear 28-36 control]","% INHIBITION of 125I-NGF binding, R7 (trkA-p75)",[7],-11.3%
same,"% INHIBITION of 125I-NGF binding, PC12 (trkA-p75)",[6]; analog ~40 μM,5.0%
same,"% INHIBITION of 125I-NGF binding, E25 (trkA)",[3],6.4 ± 12.4%
Fmoc-X C T D E K Q A C X [C(92-97)],effect on NGF mediated PC12 neurite outgrowth (in words),[1],significantly inhibited
same,INHIBITION OF NEURITE OUTGROWTH (1),[1],+++ (equivalent to 6.25 ng/ml NGF)
same,effect on bFGF mediated PC12 neurite outgrowth (in words),[2],did not affect
same,disappearance of surface trkA receptors (receptor internalization),[8],induced the disappearance of surface trkA receptors at the permissive conditions only
same,"% INHIBITION of 125I-NGF binding, R7 (trkA-p75)",[7]; 40 µM,24.3% and 24.3 ± 9.2%
same,"% INHIBITION of 125I-NGF binding, E25 (trkA)",[3]; 40 µM,64.9% and 64.9 ± 12.4%
Fmoc-X C D I K G K E C X [C(30-35)],effect on NGF mediated PC12 neurite outgrowth (in words),[1],did not affect
same,effect on bFGF mediated PC12 neurite outgrowth (in words),[2],did not affect
same,effect on 125I-NGF binding to R7 cells (in words),[7],did not affect NGF binding to R7 cells
same,"% INHIBITION of 125I-NGF binding, R7 (trkA-p75)",[7],0.44 ± 0.6%
same,effect on 125I-NGF binding to E25 cells (in words),[3],inhibited NGF binding to E25 cells
same,"% INHIBITION of 125I-NGF binding, E25 (trkA)",[3],51.1 ± 0.7%
Fmoc-X C N I N N S C X [C(43-47)],INHIBITION OF NEURITE OUTGROWTH (1),[1],+ (equivalent to 25 ng/ml NGF)
Fmoc-X C K G K E C X [C(32-35)],INHIBITION OF NEURITE OUTGROWTH (1),[1],++ (equivalent to 12.5 ng/ml NGF)
same,effect on 125I-NGF binding to R7 cells (in words),[7],did not affect NGF binding to R7 cells
same,"% INHIBITION of 125I-NGF binding, R7 (trkA-p75)",[7],-4.5 ± 6.5%
same,"% INHIBITION of 125I-NGF binding, PC12 (trkA-p75)",[6]; analog ~40 μM,9.0%
same,effect on 125I-NGF binding to E25 cells (in words),[3],inhibited NGF binding to E25 cells
same,"% INHIBITION of 125I-NGF binding, E25 (trkA)",[3],30.7 ± 10.5%
Fmoc-X C N I N N S V C X [C(43-48)],effect on NGF mediated PC12 neurite outgrowth (in words),[1],significantly inhibited; also recorded: effective in inhibiting biological assays in PC12 cells
same,INHIBITION OF NEURITE OUTGROWTH (1),[1],+++ (equivalent to 6.25 ng/ml NGF)
same,effect on bFGF mediated PC12 neurite outgrowth (in words),[2],did not affect; also recorded: bFGF was not affected
same,"% INHIBITION of 125I-NGF binding, R7 (trkA-p75)",[7],5.0%
same,effect on 125I-NGF binding to E25 cells (in words),[3],did not inhibit; also recorded: without being effective at all in binding assays in E25 cells
same,"% INHIBITION of 125I-NGF binding, E25 (trkA)",[3],-2.7 ± 8.5%
Fmoc-X C A S N P V E S C X [C(60-66)],INHIBITION OF NEURITE OUTGROWTH (1),[1],++ (equivalent to 12.5 ng/ml NGF)
"R A S N P V E S G (RASNPVESG) [L(59-67), linear 59-67 control]",INHIBITION OF NEURITE OUTGROWTH (1),[1],+ (equivalent to 25 ng/ml NGF)
same,"% INHIBITION of 125I-NGF binding, E25 (trkA)",[3],-9.5 ± 7.5%
Fmoc-X C T D E K Q C X [C(92-96)],effect on NGF mediated PC12 neurite outgrowth (in words),[1],significantly inhibited
same,effect on bFGF mediated PC12 neurite outgrowth (in words),[2],did not affect
same,IC50,[9],23.5 ± 16 µM
same,"% INHIBITION of 125I-NGF binding, R7 (trkA-p75)",[7]; 40 µM,51.1% and 51.1 ± 0.7%
same,"% INHIBITION of 125I-NGF binding, PC12 (trkA-p75)",[6]; analog ~40 μM,86.4 ± 10.4%
same,nature of inhibition in saturation analysis,"[3]; 45 μM analog, 125I-NGF 0-1.13 nM, E25 cells",competitive nature
same,"% INHIBITION of 125I-NGF binding, E25 (trkA)",[3]; 40 µM,71.3% and 71.3 ± 13.5%
"N N S F V I N V (NNSFVINV) [R(42-49), randomized 42-49 control]",INHIBITION OF NEURITE OUTGROWTH (1),[1],+ (equivalent to 25 ng/ml NGF)
Fmoc-X C I K G K E C X [C(31-35)],INHIBITION OF NEURITE OUTGROWTH (1),[1],++ (equivalent to 12.5 ng/ml NGF)
"V N I N N S V F (VNINNSVF) [L(42-49), linear 42-49 control]","% INHIBITION of 125I-NGF binding, R7 (trkA-p75)",[7],8.0%
same,"% INHIBITION of 125I-NGF binding, E25 (trkA)",[3],-16.0 ± 15.1%
